For assay [1], the target named is T1, Type-1 angiotensin II receptor (Oryctolagus cuniculus, UniProt P34976).
T1 sequence (P34976 whole entry): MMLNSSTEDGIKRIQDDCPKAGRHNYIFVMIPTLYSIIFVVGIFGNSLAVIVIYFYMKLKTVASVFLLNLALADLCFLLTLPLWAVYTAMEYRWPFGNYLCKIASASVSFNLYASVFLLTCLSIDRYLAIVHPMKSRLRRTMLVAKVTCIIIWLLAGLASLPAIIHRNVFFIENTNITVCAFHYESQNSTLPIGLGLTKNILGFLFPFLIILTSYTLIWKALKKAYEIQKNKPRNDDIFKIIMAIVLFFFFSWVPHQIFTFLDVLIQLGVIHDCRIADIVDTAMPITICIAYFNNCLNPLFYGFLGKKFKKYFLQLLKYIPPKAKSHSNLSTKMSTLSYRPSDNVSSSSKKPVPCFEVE
The experiment in a line: Binding affinity to Angiotensin II receptor, type 1 in rabbit aorta binding assay. The format is tissue-based.

In assay [2] the target is T2, Type-2 angiotensin II receptor (Rattus norvegicus, UniProt P35351).
T2 sequence (P35351 whole entry): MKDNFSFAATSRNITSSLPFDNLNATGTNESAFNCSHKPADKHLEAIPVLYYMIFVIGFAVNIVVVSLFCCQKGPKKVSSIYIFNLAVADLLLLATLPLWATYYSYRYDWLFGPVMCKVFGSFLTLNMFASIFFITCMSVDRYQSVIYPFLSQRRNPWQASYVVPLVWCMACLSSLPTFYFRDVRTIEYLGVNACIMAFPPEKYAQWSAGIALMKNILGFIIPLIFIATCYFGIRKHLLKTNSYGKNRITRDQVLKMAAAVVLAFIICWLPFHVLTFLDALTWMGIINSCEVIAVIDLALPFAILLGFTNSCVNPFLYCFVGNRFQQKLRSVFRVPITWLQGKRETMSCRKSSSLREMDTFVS
Put plainly: Binding affinity to AT2 receptor in rat midbrain binding assay. The format is tissue-based.

The record followed here is ChEMBL document CHEMBL1127264, “Substituted 1,3-benzodioxole & 1,3-benzodithiole -2-carboxylates and their tetrazole analogs with potent binding affinity to the angiotensin II AT1 receptor” (Bioorg Med Chem Lett, 1994).

Turning to `CCCc1nc2c(C)ccnc2n1Cc1ccc2c(c1)OC(c1ccccc1)(c1nn[nH]n1)O2` (stereo not drawn), the IC50 in assay [1] was found to be 45 nM; in assay [2] it was 16000 nM.
For `CCCc1nc2c(C)ccnc2n1Cc1ccc2c(c1)SC(C(=O)O)(c1ccccc1)S2` (stereo not drawn), the IC50 in assay [1] came out at 34 nM; in assay [2] it was 8100 nM.
For `CCCc1nc2c(C)ccnc2n1Cc1ccc2c(c1)OC(C(=O)O)(c1ccccc1)O2` (stereo not drawn), in that order: 56 nM and 2800 nM.
For `CCCc1nc2c(C)ccnc2n1Cc1ccc2c(c1)SC(c1ccccc1)(c1nn[nH]n1)S2` (stereo not drawn), in that order: 35 nM and 15000 nM.
